This series relates to human maximum recommended daily dose, FDA database. Kind of series: DSSTox (FDAMDD) FDA Maximum (Recommended) Daily Dose Database. As to conditions: active compounds read low. In a few lines: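 MRDD values come from clinical trials with daily oral dosing, usually for 3–12 months, for the average adult, in mg/day converted to mg/kg-bw/day assuming 60 kg. Antineoplastic mg/m2 doses are divided by 37. Activity score maps log10(1/MRDD mmol) onto 1–100.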

[1] abbreviates: TherapeuticCategory: antibacterial.
Where [2] appears, read: TherapeuticCategory: cerebral vasodilator.
The mark [3] stands for this setting: TherapeuticCategory: antihistaminic.
[4] abbreviates: TherapeuticCategory: antihypertensive.
The mark [5] stands for this setting: TherapeuticCategory: local anesthetic.
[6] abbreviates: TherapeuticCategory: cholinergic.
Where [7] appears, read: TherapeuticCategory: enzyme cofactor vitamin.
[8] abbreviates: TherapeuticCategory: anticholinergic.
Where [9] appears, read: TherapeuticCategory: analgesic, anti inflammatory.
Where [10] appears, read: TherapeuticCategory: glucocorticoid.
Where [11] appears, read: TherapeuticCategory: antineoplastic.

As to `CC(CN1c2ccccc2Sc2ccc(S(=O)(=O)N(C)C)cc21)N(C)C` (stereo not drawn), the maximum recommended daily dose (mmol/kg-bw/day) (TherapeuticCategory: antimigraine) was 0.0034.

Take `COc1cc(NS(=O)(=O)c2ccc(N)cc2)nc(C)n1`: the maximum recommended daily dose (mmol/kg-bw/day) under setting [1] is 0.113.

In the case of `COCCOC(=O)C1=C(C)NC(C)=C(C(=O)OC(C)C)C1c1cccc([N+](=O)[O-])c1` (stereo not drawn), under setting [2], the maximum recommended daily dose (mmol/kg-bw/day) was 0.0143.

As to `Cc1ccc(Cl)c(OCC(O)CNC(C)(C)C)c1` (stereo not drawn), the maximum recommended daily dose (mmol/kg-bw/day) (TherapeuticCategory: antihypertensive, antianginal, antiarrhythmic, antiglaucomic) was 0.0245.

In the case of `O=C1NCC2(CCN(CCc3ccccc3)CC2)O1`, the maximum recommended daily dose (mmol/kg-bw/day) (TherapeuticCategory: bronchodilator, alpha adrenergic blocker) is 0.0307.

`CN(C)CCOc1ccccc1Cc1ccccc1`: the maximum recommended daily dose (mmol/kg-bw/day) under setting [3] is 0.013.

For the compound `COC(=O)[C@H]1[C@H]2C[C@@H]3c4[nH]c5cc(OC)ccc5c4CCN3C[C@H]2C[C@@H](OC(=O)c2cc(OC)c(OC)c(OC)c2)[C@@H]1OC`, under setting [4], the maximum recommended daily dose (mmol/kg-bw/day) is 1.64e-05.

As to `CCCN[C@H]1CCc2nc(N)sc2C1`, the maximum recommended daily dose (mmol/kg-bw/day) (TherapeuticCategory: antiparkinsonian, dopamine receptor agonist) is 0.000473.

As for `CN1CCC[C@@H]1CCO[C@](C)(c1ccccc1)c1ccc(Cl)cc1`, the maximum recommended daily dose (mmol/kg-bw/day) under setting [3] was 0.00039.

For the compound `N=C(N)c1ccc(OCCCCCOc2ccc(C(=N)N)cc2)cc1`, the maximum recommended daily dose (mmol/kg-bw/day) (TherapeuticCategory: antiprotozoal) is 0.0118.

For `COC(=O)C(c1ccccc1)C1CCCCN1` (stereo not drawn), the maximum recommended daily dose (mmol/kg-bw/day) (TherapeuticCategory: CNS stimulant) is 0.00429.

With `CCCCN1CCCCC1C(=O)Nc1c(C)cccc1C` (stereo not drawn), the maximum recommended daily dose (mmol/kg-bw/day) under setting [5] is 0.013.

For `CC(C[N+](C)(C)C)OC(N)=O` (stereo not drawn), the maximum recommended daily dose (mmol/kg-bw/day) under setting [6] was 0.0169.

Take `CC(=O)N=c1sc(S(N)(=O)=O)nn1C`: under “TherapeuticCategory: diuretic”, the maximum recommended daily dose (mmol/kg-bw/day) was 0.0212.

Regarding `CCc1nn(CCCN2CCN(c3cccc(Cl)c3)CC2)c(=O)n1CCOc1ccccc1`, under “TherapeuticCategory: antidepressant, seratonin receptor antagonist”, the maximum recommended daily dose (mmol/kg-bw/day) was 0.0213.

`CN[C@@H]1[C@H](O[C@H]2[C@H](O[C@H]3[C@H](O)[C@@H](O)[C@H](N=C(N)N)[C@@H](O)[C@@H]3N=C(N)N)O[C@@H](C)[C@]2(O)C=O)O[C@@H](CO)[C@H](O[C@@H]2O[C@H](CO)[C@@H](O)[C@H](O)[C@@H]2O)[C@H]1O`: the maximum recommended daily dose (mmol/kg-bw/day) under setting [1] is 0.0269.

Take `CCN(CC)C(=O)Nc1ccc(OCC(O)CNC(C)(C)C)c(C(C)=O)c1` (stereo not drawn): the maximum recommended daily dose (mmol/kg-bw/day) (TherapeuticCategory: antihypertensive, antianginal) is 0.0176.

As for `C=CCN1CC[C@]23c4c5ccc(O)c4O[C@H]2C(=O)CC[C@@]3(O)[C@H]1C5`, under “TherapeuticCategory: narcotic antagonist”, the maximum recommended daily dose (mmol/kg-bw/day) is 0.000305.

For the compound `OC[C@@H](O)[C@@H](O)[C@H](O)[C@H](O)CO`, the maximum recommended daily dose (mmol/kg-bw/day) (TherapeuticCategory: diuretic, diagnostic aid) is 5.48.

Regarding `CCOC(=O)C1=C[C@]2(CC)CCCN3CCc4c(n1c1ccccc41)[C@@H]32`, the maximum recommended daily dose (mmol/kg-bw/day) under setting [2] was 0.00143.

Turning to `CCCCC[C@H](O)/C=C/[C@@H]1[C@@H](C/C=C\CCCC(=O)O)[C@@H](O)C[C@H]1O`, under “TherapeuticCategory: oxytocic, abortifacient”, the maximum recommended daily dose (mmol/kg-bw/day) is 3.53e-05.

Take `CC#C[C@]1(O)CC[C@H]2[C@@H]3CCC4=CC(=O)CCC4=C3[C@@H](c3ccc(N(C)C)cc3)C[C@@]21C`: for the setting “TherapeuticCategory: abortifacient”, the maximum recommended daily dose (mmol/kg-bw/day) was 0.0233.

Consider `O=[N+]([O-])c1cc(Cl)cc(-c2cc(Cl)cc([N+](=O)[O-])c2O)c1O`, for which, where the note is “TherapeuticCategory: none”, the maximum recommended daily dose (mmol/kg-bw/day) was 0.0058.

For `CC(=O)N(c1onc(C)c1C)S(=O)(=O)c1ccc(N)cc1`, under setting [1], the maximum recommended daily dose (mmol/kg-bw/day) is 0.216.

Turning to `Cc1ncc(CO)c(CO)c1O`, the maximum recommended daily dose (mmol/kg-bw/day) under setting [7] was 0.0394.

On to `C[N+]1([O-])[C@@H]2CC[C@H]1CC(OC(=O)C(CO)c1ccccc1)C2` (stereo partly drawn), for which, under setting [8], the maximum recommended daily dose (mmol/kg-bw/day) was 0.000164.

As for `CC1=C(/C=C/C(C)=C/C=C/C(C)=C/C=C/C=C(C)/C=C/C=C(C)/C=C/C2=C(C)CCCC2(C)C)C(C)(C)CCC1`, the maximum recommended daily dose (mmol/kg-bw/day) (TherapeuticCategory: vitamin A precursor, UV screen) is 9.31e-05.

Consider `CCS(=O)(=O)CCn1c([N+](=O)[O-])cnc1C`, for which the maximum recommended daily dose (mmol/kg-bw/day) (TherapeuticCategory: antiprotozoal, antiamebic) was 0.135.

For the compound `CS(=O)(=O)c1ccc(C2=C(c3ccccc3)C(=O)OC2)cc1`, the maximum recommended daily dose (mmol/kg-bw/day) under setting [9] is 0.00265.

As to `CCN(CC)CCNc1ccc(C)c2sc3ccccc3c(=O)c12`, the maximum recommended daily dose (mmol/kg-bw/day) (TherapeuticCategory: antihelmintic) is 0.0978.

Consider `OC[C@H]1O[C@H](O[C@H]2[C@H](O)[C@@H](O)[C@H](O)O[C@@H]2CO)[C@H](O)[C@@H](O)[C@@H]1O`, for which the maximum recommended daily dose (mmol/kg-bw/day) (TherapeuticCategory: none) was 0.292.

Consider `O=C(OC1CC2CCC(C1)[N+]21CCCC1)C(O)(c1ccccc1)c1ccccc1` (stereo not drawn), for which the maximum recommended daily dose (mmol/kg-bw/day) (TherapeuticCategory: antispasmodic) is 0.000467.

Take `N[C@@H](Cc1ccc(O)c(O)c1)C(=O)O`: the maximum recommended daily dose (mmol/kg-bw/day) (TherapeuticCategory: antiparkinsonian) was 0.674.

Turning to `CN(C)C(=O)Oc1cccc([N+](C)(C)C)c1`, the maximum recommended daily dose (mmol/kg-bw/day) under setting [6] is 0.028.

On to `CC(C(=O)O)c1ccc2oc(-c3ccc(Cl)cc3)nc2c1` (stereo not drawn), for which the maximum recommended daily dose (mmol/kg-bw/day) under setting [9] was 0.0331.

In the case of `CCCCCCC(=O)O[C@H]1CC[C@H]2[C@@H]3CCc4cc(O)ccc4[C@H]3CC[C@]12C`, the maximum recommended daily dose (mmol/kg-bw/day) (TherapeuticCategory: estrogen) is 0.0013.

In the case of `C[C@H]1C[C@H]2[C@@H]3CCC4=CC(=O)C=C[C@]4(C)[C@@]3(F)[C@@H](O)C[C@]2(C)[C@@]1(O)C(=O)CO`, under setting [10], the maximum recommended daily dose (mmol/kg-bw/day) is 0.000382.

As for `CCNNC(=O)[C@@H]1[C@H](c2cc(OC)c(OC)c(OC)c2)c2cc3c(cc2[C@H](O)[C@H]1CO)OCO3`, under setting [11], the maximum recommended daily dose (mmol/kg-bw/day) is 0.00702.

Consider `CC(=O)[C@H]1CC[C@H]2[C@@H]3CC[C@H]4C[C@H](O)CC[C@]4(C)[C@H]3C(=O)C[C@]12C`, for which the maximum recommended daily dose (mmol/kg-bw/day) (TherapeuticCategory: anesthetic) is 0.00203.

Consider `O=C(O)C(S)C(S)C(=O)O` (stereo not drawn), for which the maximum recommended daily dose (mmol/kg-bw/day) (TherapeuticCategory: antidote for heavy metal poisoning, radioactive imaging agent) is 0.0549.

Take `CN1CCN(C2=Nc3ccccc3Sc3ccc(Cl)cc32)CC1`: the maximum recommended daily dose (mmol/kg-bw/day) (TherapeuticCategory: antipsychotic) is 0.000727.

`CCCN(CCC)C(=O)C(CCC(=O)O)NC(=O)c1ccccc1` (stereo not drawn): the maximum recommended daily dose (mmol/kg-bw/day) under setting [8] was 0.0798.

In the case of `Cc1c(C(C)C)c(=O)n(-c2ccccc2)n1C`, the maximum recommended daily dose (mmol/kg-bw/day) (TherapeuticCategory: analgesic, antipyretic, antiphlogistic) is 0.13.

For the compound `OC[C@@]1(O)OC[C@@H](O)[C@@H](O)[C@@H]1O`, the maximum recommended daily dose (mmol/kg-bw/day) (TherapeuticCategory: fluid and nutrient replenisher, ferric form as hematinic) is 2.31.

Consider `CCn1nc(C)c2c1C(c1ccccc1)=NCC(=O)N2`, for which the maximum recommended daily dose (mmol/kg-bw/day) (TherapeuticCategory: antianxiolytic) was 0.00496.

On to `CO[C@H]1[C@@H](O)C[C@H](O[C@H]2[C@@H](O)C[C@H](O[C@H]3[C@@H](O)C[C@H](O[C@H]4CC[C@@]5(C)[C@H](CC[C@@H]6[C@@H]5C[C@@H](O)[C@]5(C)[C@@H](C7=CC(=O)OC7)CC[C@]65O)C4)O[C@@H]3C)O[C@@H]2C)O[C@@H]1C`, for which the maximum recommended daily dose (mmol/kg-bw/day) (TherapeuticCategory: cardiotonic) is 8.39e-06.

With `Cc1ccccc1OCC(O)CO` (stereo not drawn), the maximum recommended daily dose (mmol/kg-bw/day) (TherapeuticCategory: skeletal muscle relaxant) was 0.274.

`O=C(O)c1cc(N=Nc2ccc(S(=O)(=O)Nc3ccccn3)cc2)ccc1O`: the maximum recommended daily dose (mmol/kg-bw/day) (TherapeuticCategory: treatment of ulcerative colitis and Crohn's disease) is 0.334.

As for `CC(C)NCC(O)COc1ccc(CCOCC2CC2)cc1` (stereo not drawn), under “TherapeuticCategory: antihypertensive, antiglaucomic”, the maximum recommended daily dose (mmol/kg-bw/day) is 0.00217.

With `CCCC(=O)O[C@]1(C(=O)COC(=O)CC)[C@@H](C)C[C@H]2[C@@H]3CCC4=CC(=O)C=C[C@]4(C)[C@@]3(F)[C@@H](O)C[C@@]21C`, under setting [10], the maximum recommended daily dose (mmol/kg-bw/day) was 0.000289.

`CCN(CC)CCN1C(=O)CN=C(c2ccccc2F)c2cc(Cl)ccc21`: the maximum recommended daily dose (mmol/kg-bw/day) (TherapeuticCategory: sedative, hypnotic) is 0.00129.

`CCC1(C)CC(=O)NC1=O` (stereo not drawn): the maximum recommended daily dose (mmol/kg-bw/day) (TherapeuticCategory: anticonvulsant) was 0.118.

As to `CC(=O)[C@@]1(O)CC[C@H]2[C@@H]3C=C(Cl)C4=CC(=O)CC[C@]4(C)[C@H]3CC[C@@]21C`, the maximum recommended daily dose (mmol/kg-bw/day) (TherapeuticCategory: progestogen, antineoplastic) is 9.18e-05.

`COC(=O)[C@H]1[C@H]2C[C@@H]3c4[nH]c5cc(OC)ccc5c4CCN3C[C@H]2C[C@@H](OC(=O)/C=C/c2cc(OC)c(OC)c(OC)c2)[C@@H]1OC`: the maximum recommended daily dose (mmol/kg-bw/day) under setting [4] was 2.63e-05.

On to `O=c1[nH]c(=O)n(C2CCCO2)cc1F` (stereo not drawn) (tested in a mixture with another compound), for which, under setting [11], the maximum recommended daily dose (mmol/kg-bw/day) was 0.0641.

`Nc1[nH]c(=O)ncc1F`: for the setting “TherapeuticCategory: antifungal”, the maximum recommended daily dose (mmol/kg-bw/day) was 1.16.

With `O=C1CN=C(c2ccccc2)c2cc([N+](=O)[O-])ccc2N1`, the maximum recommended daily dose (mmol/kg-bw/day) (TherapeuticCategory: anticonvulsant, hypnotic) was 0.00118.

As for `CO/N=C(/C(=O)N[C@@H]1C(=O)N2C(C(=O)O)=C(COC(N)=O)CS[C@H]12)c1ccco1`, the maximum recommended daily dose (mmol/kg-bw/day) under setting [1] is 0.0394.

As to `CCOC(=O)C1(c2ccccc2)CCN(C)CC1`, where the note is “TherapeuticCategory: narcotic analgesic”, the maximum recommended daily dose (mmol/kg-bw/day) is 0.0606.

With `Cc1ncc(C[n+]2csc(CCO)c2C)c(N)n1`, under setting [7], the maximum recommended daily dose (mmol/kg-bw/day) was 0.00555.

As to `CCCN(CC)C(CC)C(=O)Nc1c(C)cccc1C` (stereo not drawn), under setting [5], the maximum recommended daily dose (mmol/kg-bw/day) is 0.0241.

Regarding `O=C(c1ccc(F)cc1)C1CCN(CCn2c(=O)[nH]c3ccccc3c2=O)CC1`, the maximum recommended daily dose (mmol/kg-bw/day) under setting [4] was 0.00336.

Take `CCCCN(CCCC)CCC(O)c1cc2c(Cl)cc(Cl)cc2c2cc(C(F)(F)F)ccc12` (stereo not drawn): the maximum recommended daily dose (mmol/kg-bw/day) (TherapeuticCategory: antimalarial) is 0.05.
